Data published in patent US4920118A, “Aromatic 2-aminoalkyl-1,2-benzoisothiazol-3-(2H)one-1,1-dioxide and their use as anxiolytic and anti-hypertensive agents” (Merrell Dow Pharmaceuticals Inc., priority 1989, dated 1990).
Read-outs that look alike come from different tables or passages of the source.

Assays:
[1] = test system: anesthetized normotensive Sprague-Dawley rats; experiment: Blood pressure and heart rate in anesthetized normotensive rats; type: in vivo, rat
Method: Male, normotensive Sprague-Dawley rats weighing 250-350 g (supplied by Charles River, France) were anesthetized with pentobarbitone sodium, 60 mg/kg, i.p., plus 15 mg/kg s.c. Blood pressure was recorded either from the left common carotid artery or from a femoral artery by means of a Statham pressure transducer (Type P23 AA) and heart rate was recorded from the electrocardiogram using a Beckman cardiotachometer coupler (Type 9757 B). […] A femoral vein was cannulated for the intravenous injection of drugs. After completion of all operative procedures, heparin 500 U was injected intravenously.
The compounds of Example I, 2-[4-[(2,3-dihydro-1,4-benzodioxine-2-yl)methylamino]butyl]-1,2-benzoisothiazol-3(2H)one-1,1-dioxide was administered s.c. as a saline solution in a volume of 1 ml/kg body weight. The following changes in blood pressure (B.P.) and heart rate (H.R.) were observed.

5-HT1A recognition sites = molecular target: T1, 5-HT1A recognition sites (Rattus norvegicus, UniProt P19327); experiment: 5-HT1A radioligand binding, rat frontal cortex homogenate; settings: for Fold Increase (antilog of the difference of the test compound compared to buspirone): 5-HT1A binding potency relative to buspirone
T1 construct: male normotensive Sprague-Dawley rat frontal cortex was dissected, frozen in liquid nitrogen; from tissue; host or cells: frontal cortex of male normotensive Sprague-Dawley rats, washed homogenate
T1 sequence (P19327 1-422): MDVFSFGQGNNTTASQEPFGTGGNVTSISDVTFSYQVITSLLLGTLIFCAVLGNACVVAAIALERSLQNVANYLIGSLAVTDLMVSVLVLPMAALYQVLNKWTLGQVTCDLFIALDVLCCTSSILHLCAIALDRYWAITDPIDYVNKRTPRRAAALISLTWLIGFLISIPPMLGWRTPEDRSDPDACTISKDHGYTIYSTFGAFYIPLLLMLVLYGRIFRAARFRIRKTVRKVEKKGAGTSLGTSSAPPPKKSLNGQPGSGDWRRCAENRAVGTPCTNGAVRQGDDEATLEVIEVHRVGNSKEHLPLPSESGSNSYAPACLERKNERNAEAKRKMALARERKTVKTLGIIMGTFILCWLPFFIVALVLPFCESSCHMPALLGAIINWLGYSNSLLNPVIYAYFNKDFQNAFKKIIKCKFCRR

[2] = test system: conscious spontaneously hypertensive rats; experiment: Arterial blood pressure and heart rate in conscious spontaneously hypertensive rats; type: in vivo, rat; settings: for Δ BP / Δ HR: conscious SHR
Method: In a separate experiment arterial blood pressure and heart rate were measured directly in conscious male, spontaneously hypertensive rats weighing 250-350 g (Charles River, France). The same test compound was administered, either s.c. or orally, as a saline solution of 1 ml/kg body weight in the doses shown below.

[3] = [3H]-8-OH-DPAT, rat frontal cortex, mean ± S.E.M. of 3 independent experiments, read-out: 5-HT1A Binding Affinity Rat Brain Cortex (pIC50) (converted)

O=C1c2ccccc2S(=O)(=O)N1CCCCNCC1COc2ccccc2O1 (stereo not drawn) [Example I, 2-[4-[(2,3-Dihydro-1,4-benzodioxin-2-yl)methylamino]butyl]-1,2-benzoisothiazol-3(2H)one-1,1-dioxide]
Effect on blood pressure and heart rate (in words) [1]: effectively lowers the blood pressure and heart rate | Δ BP ([1]; 25 μg/kg s.c.): -35 mmHg | Δ HR ([1]; 25 μg/kg s.c.): -80 beats/min | Δ BP ([1]; 500 μg/kg s.c.): -50 mmHg | Δ HR ([1]; 500 μg/kg s.c.): -90 beats/min | Fold Increase (antilog of the difference of the test compound compared to buspirone) (5-HT1A recognition sites): 66 | IC50 (5-HT1A recognition sites; [3]): 0.457 nM | Δ BP ([2]; 100 μg/kg s.c.): -20 mmHg | Δ HR ([2]; 100 μg/kg s.c.): +80 beats/min | Δ BP ([2]; 200 μg/kg s.c.): -65 mmHg | Δ HR ([2]; 200 μg/kg s.c.): +100 beats/min | Δ BP ([2]; 500 μg/kg s.c.): -75 mmHg | Δ HR ([2]; 500 μg/kg s.c.): +120 beats/min | Δ BP ([2]; 1 mg/kg per os): -25 mmHg | Δ HR ([2]; 1 mg/kg per os): +100 beats/min | Δ BP ([2]; 5 mg/kg per os): -45 mmHg | Δ HR ([2]; 5 mg/kg per os): +100 beats/min | Effect on blood pressure and heart rate (in words) ([2]; conscious spontaneously hypertensive rats): lowers the blood pressure with reflex tachycardia

O=C1c2ccccc2S(=O)(=O)N1CCCCN1CCc2c([nH]c3ccccc23)C1 [Example II, 2-[4-(2-[1,2,3,4]-tetrahydro-β-carbolinyl)butyl]-1,2-benzoisothiazol-3(2H)one-1,1-dioxide]
IC50 (5-HT1A recognition sites): 6.92 nM | Fold Increase (antilog of the difference of the test compound compared to buspirone) (5-HT1A recognition sites): 4.4

COc1cccc2c1CC(NCCCCN1C(=O)c3ccccc3S1(=O)=O)CC2 (stereo not drawn) [Example III, 2-[4-[8-Methoxytetralin-2-amino]butyl]1,2-benzoisothiazol3(2H)one-1,1-dioxide]
Fold Increase (antilog of the difference of the test compound compared to buspirone) (5-HT1A recognition sites): 10 | IC50 (5-HT1A recognition sites; [3]): 3.02 nM

O=C1c2ccccc2S(=O)(=O)N1CCCCNCC1COc2ccccc2N1 (stereo not drawn) [Example V, 2-[4-[(2,3-Dihydro-1,4-benzoxazin-3-yl)methylamino]butyl]-1,2-benzoisothiazol-3-(2H)one-1,1-dioxide]
Fold Increase (antilog of the difference of the test compound compared to buspirone) (5-HT1A recognition sites): 3.2 | IC50 (5-HT1A recognition sites; [3]): 9.33 nM
